The source of these data is patent publication US11365227B2, “Peptide and pharmaceutical compositions of same for use as an antimicrobial and in cancer treatment” (UNIVERSITAT DE VALÈNCIA, priority 2017, dated 2022).

Data set [1] has as its system S. aureus. Kind of data set: Antimicrobial activity by flow cytometry (SYBR Green / propidium iodide). Format: cell-based, Staphylococcus aureus subsp. aureus CECT 4013. How it is done:
The strain used was CECT 4013 of S. aureus subsp. aureus, publicly accessible deposited in the Spanish Type Culture Collection (CECT).
Starting from cells of S. aureus cultured overnight in a liquid medium LB (peptone 1%, yeast extract 0.5% and NaCl 1%) at 37° C. with stirring, aliquots were obtained in a new liquid medium and allowed to grow until reaching an optical density at 600 nm (OD600) of 0.5, optimum for detection in the flow cytometer. Aliquots were prepared with a concentration of 5×10^6 cfu/100 μL of S. aureus to which were added 10, 15, 20 and 25 μg/mL of PaSK, 25 μg/mL of TcDef3-pep and H2O (negative control), solvent used to dilute the peptides. The mixtures were incubated at 37° C. for 8 h and marked with the fluorochromes SYBR Green (Invitrogen) (25 μL of a SYBR Green 25× solution in H2O) that stains all the cells and propidium iodide (Sigma) (10 μL of propidium iodide 1 mg/mL) that stains dead cells. Finally, the cell death caused by the peptides was analysed by flow cytometry with the equipment BD Facs Verse (Becton Dickinson), from the cell culture and flow cytometry section of the Central Services for Research Support of the University of Valencia. The experiments were performed in duplicate.
The flow cytometer forces cells to pass one by one through a needle, creating a thin line of liquid and detecting how the laser beam (argon emission laser at 488 nm, in the equipment used) interacts with the cells, depending on how the incident light is deviated and the fluorescence emitted by the excited fluorochromes. The results are presented as graphs obtained with the analysis program BD Facs suite v1.0.5.3841 (Becton Dickinson). […] Then, a second graph is obtained with the parameters SSC and FITC (fluorescence parameter indicating the cells containing SYBR Green), to differentiate the cells from the other particles that may be present in the sample. Lastly, a third graph is obtained with the fluorescence parameters FITC and PerCPCy5.5 (indicating the cells stained with propidium iodide) to differentiate the cells that have been stained only by SYBR Green from those stained with propidium iodide, which will be those that have died.
The antimicrobial activity of the peptide PaSK was determined by flow cytometry. […] Therefore, the use of these two fluorochromes provides a method for determining viable cells, quantifying the loss of cell viability from the increase in propidium iodide inside the dead cells.
After incubating the cells of strain CECT 4013 of S. aureus with 25 μg/mL of the peptides TcDef3-pep and PaSK, the percentage of dead cells was determined. […] FIGS. 1A-1D show the graphs corresponding to the fluorescence obtained in the windows of the flow cytometer.
(Flow cytometry measures light scatter and fluorescence of single cells or particles in a stream.)

Data set [2] deals with S. aureus. Briefly: Transmission electron microscopy of S. aureus cells treated with peptides. The settings on record: 25 μg/mL, 1 h. Format: cell-based, Staphylococcus aureus subsp. aureus CECT 4013. How it is done:
The samples were prepared in the same way as for scanning electron microscopy, except for the series of graded dehydration with ethanol, in which only the 90° grade was reached. Then the samples were included in resin in 4 steps: ethanol 96°—resin LR-White 2:1 (20 h), ethanol 100°—resin 2:1 (20 h), ethanol 100°—resin 1:2 (20 h) and 100% resin (24 h at 60° C.). After the samples were included in the resin the block was prepared for ultrathin cuts of 60 nm in the equipment Leica UC6 Ultracut Microtome.
Transmission electron microscopy provides high-resolution images which were used to view the ultrastructural damage caused by the peptides inside the bacteria. The cells of S. aureus CECT 4013 were treated with the peptides hBD-3, TcDef3-pep and PaSK at a concentration of 25 μg/mL, for 1 h, and analysed using transmission electron microscopy (FIG. 6). In cells without treatment, an intact cytoplasm membrane (3) and peptidoglycane wall (2) were observed, typical of a Gram+ bacteria as S. aureus, as well as a division septum (1) without malformations, while in treated cells different types of alterations were observed. […] Small size circular structures (9) are observed. These structures show a different electrodensity from cells and lack a cytoplasm membrane and peptidoglycane wall. The biofilm formed by the cells treated with peptides was also observed in the images obtained by transmission electron microscopy (FIG. 7) and it was not observed in the cells treated with human defensin hBD-3 (FIG. 6).

For data set [3], the system named is MDA-MB-231 triple-negative breast cancer cells. Briefly: Cell viability MTS assay, cytotoxic effect. Format: cell-based, human. Conditions: around 100 μM (400 μg/mL). How it is done:
(§1) Cell viability was determined by the MTS method. The MDA-MB-231 cells cultured in plates with 96 wells at 37° C. in an atmosphere humidified with 10% CO2 to a density of 5×10^3 cells/well were incubated with different concentrations of the peptide PaSK for 24 h. Then 20 μL were added of the solution MTS/PMS (3-(4,5-dimethylthiazol-2-yl)-5-(3-carboxymethoxyfenyl)-2-(4-sulphophenyl)-2H-tetrazole/phenazine methosulphate) to each well and after incubating for 2 h in the dark the absorbance at 490 nm was read in a plate reader. The percentage reduction in number of cells was calculated according to the formula (1−E/C)×100, where E is the absorbance of the cells treated with the peptide and C is the absorbance of the samples of the control cells.
(§2) The cytotoxic effect of the peptide PaSK has been studied in two cell lines of triple-negative breast cancer cells, one human (MDA-MB-231) and one mouse (4T1), and a line of normal mouse mammary epithelial cells (HC-11). To this end, a cell viability MTS assay was performed, based on the use of a compound derived from tetrazolium that is reduced in live cells to form a soluble coloured product. […]

Data set [4] can be described thus: Cell viability MTS assay, cytotoxic effect. It counts as cell-based. The settings on record: mouse, HC-11 normal mammary epithelial cells, approximately 200 μM (700 μg/mL), 0.5% bovine foetal serum. How it is done:
as §1, §2
(Formazan colour is commonly taken as a measure of viable cells.)

Where a SMILES comes first, the peptide text is derived from it.

What is called mortality is the percentage killed. In the case of `CC[C@H](C)[C@H](NC(=O)[C@H](CCCNC(=N)N)NC(=O)[C@H](CCCNC(=N)N)NC(=O)[C@H](CCCCN)NC(=O)[C@H](CC(N)=O)NC(=O)[C@H](CS)NC(=O)[C@H](Cc1ccc(O)cc1)NC(=O)CNC(=O)CNC(=O)[C@H](CCCNC(=N)N)NC(=O)[C@H](CCCCN)NC(=O)[C@H](CCCNC(=N)N)NC(=O)[C@H](CCCCN)NC(=O)[C@H](CC(C)C)NC(=O)[C@H](CC(C)C)NC(=O)[C@H](CS)NC(=O)[C@H](Cc1c[nH]cn1)NC(=O)[C@H](C)NC(=O)[C@H](C)NC(=O)[C@H](CS)NC(=O)[C@H](C)NC(=O)[C@H](C)NC(=O)[C@H](Cc1c[nH]cn1)NC(=O)[C@H](CC(N)=O)NC(=O)[C@@H](NC(=O)[C@@H](N)CCCCN)C(C)C)C(=O)N[C@@H](CS)C(=O)N[C@H](C(=O)N[C@@H](CS)C(=O)N[C@@H](CCCNC(=N)N)C(=O)N[C@@H](CC(N)=O)C(=O)O)C(C)C` [PaSK] (H-KVNHAACAAHCLLKRKRGGYCNKRRICVCRN-OH; N-terminus and C-terminus assumed), the “percentage of cell death (cytotoxicity)” value in data set [1] (10 μg/mL, same conditions) is listed as about 100%. Besides, in data set [1] (25 μg/mL, 8 h at 37° C., 2 replicates), the “percentage of dead cells (cytotoxicity)” value is about 100%. The “ultrastructural damage, transmission electron microscopy” value in data set [2] is “detachments, malformations and thinning of the membrane”. In addition, in data set [3], the “cytotoxicity compared with the other cell lines” value was “significantly more cytotoxic”. For the same compound, in data set [4], the mortality at 24 h, 200 μM is about 50%.
